Results as given in patent US20080009418A1, “Selective Inhibitors” (Alchemia LTD., priority 2004, published 2008).

Tests used:
[1] = target: T1, Human melanocortin (MC5) (Homo sapiens, UniProt P33032); assay: Radioligand binding, human melanocortin MC5 membranes, FlashPlate, [125I]-NDP-αMSH; conditions: compound at 10 μM, [125I]-NDP-αMSH, human MC5 membranes
T1 construct: purchased Perkin Elmer Biosignal
Procedure, shortened: (§1)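 Cloned human receptor membranes were coated onto FlashPlate wells and incubated with radioligand and compound (added from a 0.5 mM DMSO daughter plate) for 1 hour at room temperature in the dark. Scintillation counting gave percent inhibition, with DMSO defining total and reference ligand defining non-specific binding.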

[2] = target: T2, Human κ-Opioid (KOP) (Homo sapiens, UniProt P41145); assay: Radioligand binding, human κ-opioid (KOP) membranes, filtration, [3H]-Diprenorphine; conditions: compound at 10 μM; [3H]-Diprenorphine, human KOP membranes
T2 construct: purchased Perkin Elmer Biosignal
Procedure, shortened: (§2)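 Membranes from cloned human receptors were incubated with compound and radioligand for 1 hour at room temperature. Bound ligand was collected on 0.3% PEI-soaked filters, washed with cold 50 mM Tris-HCl pH 7.4, and counted by scintillation. Percent inhibition was computed against DMSO totals and reference-ligand nonspecific wells.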

[3] = target: T3, Human opioid (ORL1) (Homo sapiens, UniProt P41146); assay: Radioligand binding, human opioid ORL1 membranes, FlashPlate, [125I]-Nociceptin; conditions: compound at 10 μM; [125I]-Nociceptin, human ORL1 membranes; 10 µM
T3 construct: purchased Perkin Elmer Biosignal
Procedure, shortened: as §1

[4] = target: T4, Human melanin-concentrating hormone (MCH1) (Homo sapiens, UniProt Q99705); assay: Radioligand binding, human melanin-concentrating hormone MCH1 membranes, FlashPlate, [125I]-S36057; conditions: compound at 10 μM; [125I]-S36057, human MCH1 membranes; 10 µM
T4 construct: purchased Perkin Elmer Biosignal
Procedure, shortened: as §1

[5] = target: T5, Human Melanocortin (MC4) (Homo sapiens, UniProt P32245); assay: Radioligand binding, human melanocortin MC4 membranes, FlashPlate, [125I]-NDP-αMSH; conditions: compound at 10 μM, [125I]-NDP-αMSH, human MC4 membranes
T5 construct: purchased Perkin Elmer Biosignal
Procedure, shortened: as §1

[6] = target: T6, Mouse urotensin (mUR2) (Mus musculus, UniProt Q8VIH9); assay: Radioligand binding, mouse urotensin mUR2 membranes, FlashPlate, [125I]-Urotensin II; conditions: compound at 10 μM; [125I]-Urotensin II, mouse mUR2 membranes
T6 construct: purchased Perkin Elmer Biosignal
T6 sequence (Q8VIH9 1-385): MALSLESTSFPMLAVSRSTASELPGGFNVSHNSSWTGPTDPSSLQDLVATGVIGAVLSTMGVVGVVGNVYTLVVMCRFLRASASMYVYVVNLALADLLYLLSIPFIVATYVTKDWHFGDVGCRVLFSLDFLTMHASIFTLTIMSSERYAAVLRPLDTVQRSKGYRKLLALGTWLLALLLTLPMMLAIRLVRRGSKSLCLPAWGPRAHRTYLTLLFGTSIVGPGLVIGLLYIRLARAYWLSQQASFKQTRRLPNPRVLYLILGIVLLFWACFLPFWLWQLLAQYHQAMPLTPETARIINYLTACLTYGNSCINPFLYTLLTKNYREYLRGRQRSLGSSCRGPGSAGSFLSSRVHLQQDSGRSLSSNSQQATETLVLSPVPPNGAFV
Procedure, shortened: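 Cloned mouse urotensin (mUR2) receptor membranes from Perkin Elmer Biosignal were immobilized in FlashPlate microplates using a proprietary coating. Each well got 19.5 μl buffer, then 0.5 μl of DMSO, reference ligand, or compound. Adding 5 μl of [125I]-Urotensin II, diluted to 5× final concentration in binding buffer, started binding. Plates were sealed with TopSeal-A and incubated 1 hour at room temperature in the dark. Wells were counted for 30 seconds each on a TopCount after a 60-second delay, and percentage inhibition was calculated.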

[7] = target: T7, Human Melanocortin (MC3) (Homo sapiens, UniProt P41968); assay: Radioligand binding, human melanocortin MC3 membranes, FlashPlate, [125I]-NDP-αMSH; conditions: compound at 10 μM, [125I]-NDP-αMSH, human MC3 membranes
T7 construct: purchased Perkin Elmer Biosignal
Procedure, shortened: as §1

[8] = target: T8, Human μ-opioid (MOP) (Homo sapiens, UniProt P35372); assay: Radioligand binding, human μ-opioid (MOP) membranes, FlashPlate, [3H]-Naloxone; conditions: compound at 10 μM; [3H]-Naloxone, human MOP membranes; 10 µM
T8 construct: purchased Perkin Elmer Biosignal
Procedure, shortened: as §1

[9] = target: T9, Human neurokinin (NK1) (Homo sapiens, UniProt P25103); assay: Radioligand binding, human neurokinin NK1 membranes, filtration, [125I]-Substance P; conditions: compound at 10 μM; [125I]-Substance P, human NK1 membranes
T9 construct: purchased Perkin Elmer Biosignal
Procedure, shortened: as §2

[10] = target: T10, Human neuropeptide Y (NPY-Y1) (Homo sapiens, UniProt P25929); assay: Radioligand binding, human neuropeptide Y NPY-Y1 membranes, FlashPlate, [125I]-PYY; conditions: compound at 10 μM; [125I]-PYY, human NPY-Y1 membranes
T10 construct: purchased Perkin Elmer Biosignal
T10 sequence (P25929 1-384): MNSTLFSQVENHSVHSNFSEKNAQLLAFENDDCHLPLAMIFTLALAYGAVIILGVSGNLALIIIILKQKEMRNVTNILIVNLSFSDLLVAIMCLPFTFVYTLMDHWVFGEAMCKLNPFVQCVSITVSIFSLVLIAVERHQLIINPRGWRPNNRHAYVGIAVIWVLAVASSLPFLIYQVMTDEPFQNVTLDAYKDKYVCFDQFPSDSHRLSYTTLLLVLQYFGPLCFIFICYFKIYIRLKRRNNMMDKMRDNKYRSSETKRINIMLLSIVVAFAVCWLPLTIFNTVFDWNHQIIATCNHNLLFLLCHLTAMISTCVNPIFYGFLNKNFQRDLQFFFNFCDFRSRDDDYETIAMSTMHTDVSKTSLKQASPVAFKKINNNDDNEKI
Procedure, shortened: as §1

[11] = target: T11, Human δ-opioid (DOP) (Homo sapiens, UniProt P41143); assay: Radioligand binding, human δ-opioid (DOP) membranes, FlashPlate, [3H]-Bremazocine; conditions: compound at 10 μM; [3H]-Bremazocine, human DOP membranes
T11 construct: purchased Perkin Elmer Biosignal
Procedure, shortened: as §1

T4 sequence (Q99705 whole entry): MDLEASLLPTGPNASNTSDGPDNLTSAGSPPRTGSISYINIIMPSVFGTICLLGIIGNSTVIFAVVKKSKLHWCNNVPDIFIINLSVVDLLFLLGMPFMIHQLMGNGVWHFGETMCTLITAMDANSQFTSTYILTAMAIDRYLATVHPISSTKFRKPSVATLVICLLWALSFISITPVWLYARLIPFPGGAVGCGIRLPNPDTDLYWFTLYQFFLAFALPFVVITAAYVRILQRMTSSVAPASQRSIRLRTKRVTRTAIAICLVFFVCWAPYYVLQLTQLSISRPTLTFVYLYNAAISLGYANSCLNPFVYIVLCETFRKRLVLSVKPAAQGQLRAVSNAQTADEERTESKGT
T11 sequence (P41143 whole entry): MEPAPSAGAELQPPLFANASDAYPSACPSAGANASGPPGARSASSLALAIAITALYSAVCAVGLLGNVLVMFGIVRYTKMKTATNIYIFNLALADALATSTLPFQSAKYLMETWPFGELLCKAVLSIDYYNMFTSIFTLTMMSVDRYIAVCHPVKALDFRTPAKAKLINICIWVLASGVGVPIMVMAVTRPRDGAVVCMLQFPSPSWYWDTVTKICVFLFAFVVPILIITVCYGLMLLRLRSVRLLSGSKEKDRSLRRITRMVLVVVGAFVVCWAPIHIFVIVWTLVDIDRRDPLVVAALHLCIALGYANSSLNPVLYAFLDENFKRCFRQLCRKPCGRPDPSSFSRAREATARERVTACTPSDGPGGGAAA
T1 sequence (P33032 whole entry): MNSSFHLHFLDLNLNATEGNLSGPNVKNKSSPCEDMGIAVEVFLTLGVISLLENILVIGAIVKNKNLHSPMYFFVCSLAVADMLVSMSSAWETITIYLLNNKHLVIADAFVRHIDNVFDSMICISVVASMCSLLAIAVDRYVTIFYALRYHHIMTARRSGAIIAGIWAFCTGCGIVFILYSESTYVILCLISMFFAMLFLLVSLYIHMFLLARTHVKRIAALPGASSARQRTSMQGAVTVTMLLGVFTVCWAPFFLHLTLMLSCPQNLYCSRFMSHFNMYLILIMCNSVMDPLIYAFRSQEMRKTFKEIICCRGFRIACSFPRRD
T8 sequence (P35372 whole entry): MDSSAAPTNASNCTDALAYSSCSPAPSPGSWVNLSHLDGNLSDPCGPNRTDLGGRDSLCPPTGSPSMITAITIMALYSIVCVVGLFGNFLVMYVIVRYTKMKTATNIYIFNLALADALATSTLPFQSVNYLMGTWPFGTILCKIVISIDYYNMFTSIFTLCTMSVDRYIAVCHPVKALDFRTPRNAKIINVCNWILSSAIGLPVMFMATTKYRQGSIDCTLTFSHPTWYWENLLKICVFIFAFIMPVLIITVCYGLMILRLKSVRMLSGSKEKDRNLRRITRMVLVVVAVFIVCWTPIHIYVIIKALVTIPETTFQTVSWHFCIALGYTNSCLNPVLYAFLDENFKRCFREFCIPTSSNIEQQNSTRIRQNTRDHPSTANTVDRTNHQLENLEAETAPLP
T2 sequence (P41145 whole entry): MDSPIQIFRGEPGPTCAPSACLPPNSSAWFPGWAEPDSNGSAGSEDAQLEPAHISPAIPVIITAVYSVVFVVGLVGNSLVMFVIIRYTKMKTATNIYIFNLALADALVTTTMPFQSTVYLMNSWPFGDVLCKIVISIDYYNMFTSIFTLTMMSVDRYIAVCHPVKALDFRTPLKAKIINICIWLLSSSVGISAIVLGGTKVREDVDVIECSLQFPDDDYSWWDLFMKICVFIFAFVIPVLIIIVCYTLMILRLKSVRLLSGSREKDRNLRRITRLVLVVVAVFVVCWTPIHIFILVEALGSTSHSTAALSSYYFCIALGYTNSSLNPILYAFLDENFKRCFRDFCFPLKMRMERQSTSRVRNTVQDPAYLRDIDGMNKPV
T5 sequence (P32245 whole entry): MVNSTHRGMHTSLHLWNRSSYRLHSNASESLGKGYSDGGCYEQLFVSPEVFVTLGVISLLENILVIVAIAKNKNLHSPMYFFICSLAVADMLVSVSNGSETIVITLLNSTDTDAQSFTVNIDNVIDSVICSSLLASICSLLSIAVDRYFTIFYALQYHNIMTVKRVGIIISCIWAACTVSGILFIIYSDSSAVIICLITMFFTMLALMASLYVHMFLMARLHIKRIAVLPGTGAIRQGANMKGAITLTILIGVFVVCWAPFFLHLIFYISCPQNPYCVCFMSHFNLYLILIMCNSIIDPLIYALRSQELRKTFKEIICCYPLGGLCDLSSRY
T9 sequence (P25103 whole entry): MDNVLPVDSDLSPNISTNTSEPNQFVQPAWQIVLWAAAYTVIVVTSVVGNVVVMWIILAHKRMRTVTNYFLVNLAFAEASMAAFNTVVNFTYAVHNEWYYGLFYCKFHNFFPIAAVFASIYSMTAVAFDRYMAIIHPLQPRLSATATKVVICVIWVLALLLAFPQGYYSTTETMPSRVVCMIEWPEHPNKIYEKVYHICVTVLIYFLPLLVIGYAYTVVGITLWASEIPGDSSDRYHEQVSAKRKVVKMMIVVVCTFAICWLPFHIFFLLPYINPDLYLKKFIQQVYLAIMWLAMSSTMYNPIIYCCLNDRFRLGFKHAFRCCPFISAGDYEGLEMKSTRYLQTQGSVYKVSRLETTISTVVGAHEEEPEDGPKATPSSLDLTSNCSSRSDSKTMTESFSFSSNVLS
T7 sequence (P41968 whole entry): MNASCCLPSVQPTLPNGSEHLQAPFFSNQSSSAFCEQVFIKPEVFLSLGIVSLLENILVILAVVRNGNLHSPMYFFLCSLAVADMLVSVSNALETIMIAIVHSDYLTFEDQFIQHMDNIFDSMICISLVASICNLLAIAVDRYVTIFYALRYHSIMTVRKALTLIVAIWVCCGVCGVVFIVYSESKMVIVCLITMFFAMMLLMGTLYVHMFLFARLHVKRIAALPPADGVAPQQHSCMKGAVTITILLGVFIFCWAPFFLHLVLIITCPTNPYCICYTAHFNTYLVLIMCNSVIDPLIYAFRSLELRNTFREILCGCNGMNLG
T3 sequence (P41146 whole entry): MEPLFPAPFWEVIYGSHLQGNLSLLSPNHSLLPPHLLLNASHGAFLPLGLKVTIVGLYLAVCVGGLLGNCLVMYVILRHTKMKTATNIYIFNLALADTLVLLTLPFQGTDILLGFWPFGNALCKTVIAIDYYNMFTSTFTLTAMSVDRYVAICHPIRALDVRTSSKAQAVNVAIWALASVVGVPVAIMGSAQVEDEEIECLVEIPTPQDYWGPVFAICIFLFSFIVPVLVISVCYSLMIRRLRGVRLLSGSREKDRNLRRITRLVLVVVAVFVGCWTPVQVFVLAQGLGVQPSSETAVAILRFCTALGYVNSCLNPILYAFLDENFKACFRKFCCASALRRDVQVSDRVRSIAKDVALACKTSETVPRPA

Row | Structure (SMILES) | A5: inhibition of radioligand binding ([1]; 10 µM) | A2: inhibition of radioligand binding [2] | A10: inhibition of radioligand binding [3] | A6: inhibition of radioligand binding [4] | A4: inhibition of radioligand binding ([5]; 10 µM) | A11: inhibition of radioligand binding [6] | A3: inhibition of radioligand binding [7] | A7: inhibition of radioligand binding [8] | A8: inhibition of radioligand binding [9] | A9: inhibition of radioligand binding [10] | A1: inhibition of radioligand binding [11] | A5: inhibition of radioligand binding [1] | A4: inhibition of radioligand binding [5] | A3: inhibition of radioligand binding ([7]; 10 µM)
1 | NCCCC(=O)NC1C(OCc2ccc3ccccc3c2)OC(COCc2ccccc2)C(O)C1OCc1ccc(Cl)cc1 (single isomer, unassigned) [compound 456] | + (“+” indicates greater than 50% inhibition at 10 μM) | − (“−” indicates less than 50% inhibition at 10 μM) | − (“−” indicates less than 50% inhibition at 10 μM) | + (“+” indicates greater than 50% inhibition at 10 μM) | − (“−” indicates less than 50% inhibition at 10 μM) | − (“−” indicates less than 50% inhibition at 10 μM) | − (“−” indicates less than 50% inhibition at 10 μM) | − (“−” indicates less than 50% inhibition at 10 μM) | + (“+” indicates greater than 50% inhibition at 10 μM) | − (“−” indicates less than 50% inhibition at 10 μM) | − (“−” indicates less than 50% inhibition at 10 μM) |  |  | 
2 | NCCCC(=O)NC1C(OCc2ccc3ccccc3c2)OC(COCc2ccccc2)C(O)C1OCc1ccc(Cl)cc1 (single isomer, unassigned) [compound 457] | − (“−” indicates less than 50% inhibition at 10 μM) | − (“−” indicates less than 50% inhibition at 10 μM) | + (“+” indicates greater than 50% inhibition at 10 μM) | − (“−” indicates less than 50% inhibition at 10 μM) | − (“−” indicates less than 50% inhibition at 10 μM) | − (“−” indicates less than 50% inhibition at 10 μM) | − (“−” indicates less than 50% inhibition at 10 μM) | + (“+” indicates greater than 50% inhibition at 10 μM) | + (“+” indicates greater than 50% inhibition at 10 μM) | − (“−” indicates less than 50% inhibition at 10 μM) | − (“−” indicates less than 50% inhibition at 10 μM) |  |  | 
3 | NCCCC(=O)NC1C(OCc2ccc3ccccc3c2)OC(COCc2ccc(Cl)cc2)C(O)C1OCc1ccc(Cl)cc1 (single isomer, unassigned) [compound 458] |  | − (“−” indicates less than 50% inhibition at 10 μM) | + (“+” indicates greater than 50% inhibition at 10 μM) | + (“+” indicates greater than 50% inhibition at 10 μM) |  | − (“−” indicates less than 50% inhibition at 10 μM) | + (“+” indicates greater than 50% inhibition at 10 μM) | + (“+” indicates greater than 50% inhibition at 10 μM) | + (“+” indicates greater than 50% inhibition at 10 μM) | − (“−” indicates less than 50% inhibition at 10 μM) | − (“−” indicates less than 50% inhibition at 10 μM) | + (“+” indicates greater than 50% inhibition at 10 μM) | + (“+” indicates greater than 50% inhibition at 10 μM) | 
4 | NCCCC(=O)NC1C(OCc2ccc3ccccc3c2)OC(COCc2ccc(Cl)cc2)C(O)C1OCc1ccc(Cl)cc1 (single isomer, unassigned) [compound 459] |  | − (“−” indicates less than 50% inhibition at 10 μM) | + (“+” indicates greater than 50% inhibition at 10 μM) | + (“+” indicates greater than 50% inhibition at 10 μM) |  | − (“−” indicates less than 50% inhibition at 10 μM) | + (“+” indicates greater than 50% inhibition at 10 μM) | − (“−” indicates less than 50% inhibition at 10 μM) | + (“+” indicates greater than 50% inhibition at 10 μM) | − (“−” indicates less than 50% inhibition at 10 μM) | − (“−” indicates less than 50% inhibition at 10 μM) | + (“+” indicates greater than 50% inhibition at 10 μM) | + (“+” indicates greater than 50% inhibition at 10 μM) | 
5 | NCCCC(=O)NC1C(OCc2ccc3ccccc3c2)OC(COCc2ccc3ccccc3c2)C(O)C1OCc1ccc2ccccc2c1 (single isomer, unassigned) [compound 460] |  | − (“−” indicates less than 50% inhibition at 10 μM) | − (“−” indicates less than 50% inhibition at 10 μM) | − (“−” indicates less than 50% inhibition at 10 μM) | − (“−” indicates less than 50% inhibition at 10 μM) | − (“−” indicates less than 50% inhibition at 10 μM) |  | − (“−” indicates less than 50% inhibition at 10 μM) | + (“+” indicates greater than 50% inhibition at 10 μM) | − (“−” indicates less than 50% inhibition at 10 μM) | − (“−” indicates less than 50% inhibition at 10 μM) | + (“+” indicates greater than 50% inhibition at 10 μM) |  | − (“−” indicates less than 50% inhibition at 10 μM)
